How the values were obtained:
primary CLL cells = assay: Cytotoxicity, TMRE flow cytometry viability, primary CLL cells (Example II.1); format: cell-based; conditions: Homo sapiens, CLL cell, 6 hours, TMRE positive cells normalized to control, ratio to PF670462, <1 = higher cytotoxicity than PF670462, read-out: Viability of cells, Compound of formula I (100 μM), relative to PF670462 (100 μM), CLL primary cells
Protocol: (§1) The leukemia and lymphoma-derived cell lines [MEC-1 cell line (derived from chronic lymphocytic leukemia—CLL), Nalm-16 (acute lymphocytic leukemia—ALL), K562 (chronic myeloid leukemia—CML), HL-60 (acute myeloid leukemia—AML), Maver-1 and Mino (mantle cell lymphoma—MCL), BL-41 (Burkitt lymphoma—BL), WSU-NHL (follicular lymphoma—FL), SUDHL (diffuse large B-cell lymphoma—DLBCL)], primary CLL cells and nonmalignant control primary cells were cultured in suspension in flasks under the following conditions: RPMI 1640 medium (Hyclone) supplemented with 10% fetal bovine serum (FBS, Gibco) and 1% penicillin/streptomycin (Life Technologies), 37° C., 5% CO2 and 95% relative humidity, with optimal culture cell density 5×10^6 cells/mL in case of primary cells and 0.5-1×10^6 cells/mL in case of cell lines. The adherent cell lines [A375 (derived from malignant melanoma), MDA-MB-231 and MCF-7 (breast cancer), MIA-PA-CA and PANC1 (pancreatic cancer), PC3 (prostate cancer), OVCAR4 (ovarian cancer) and HEPG2 (hepatocellular carcinoma)] were cultured on plates under the same conditions using RPMI1640 or DMEM medium (Gibco) according to instructions provided by the distributor (DSMZ/ATCC).
(§2) Cytotoxicity of compounds of formula I was tested in two models representative for leukemia (primary CLL cells) and lymphoma (Maver-1 cells). The primary CLL cells and Maver-1 cells (MCL-derived) were incubated with inhibitors at 100 μM concentration or corresponding amount of solvent (DMSO, Sigma Aldrich) as 0.1×10^6 cells/200 μl per well in a 96-well plate. Experiments were performed in technical duplicates. Viability of cells was assessed after 6 hours in case of primary CLL cells and after 24 hours in case of Maver-1 cells.
(§3) Apoptosis-induced reduction of mitochondrial potential is detected as lower TMRE fluorescence. […] Relative values are presented, showing ratio to the effect of PF670462 (as the closest prior art). Relative value <1 indicates a higher cytotoxicity than PF670462.

[1] = system: Maver-1 cells (mantle cell lymphoma); assay: Cytotoxicity, TMRE flow cytometry viability, Maver-1 cells (Example II.1); format: cell-based; conditions: Homo sapiens, Maver1, 24 hours, TMRE positive cells normalized to control, ratio to PF670462, <1 = higher cytotoxicity than PF670462, read-out: Viability of cells, Compound of formula I (100 μM), relative to PF670462 (100 μM), Maver-1 cells (mantle cell lymphoma)
Protocol: as §1, §2, §3

Row | Compound | viability at 100 µM (primary CLL cells) [%] | viability at 100 µM [1] [%]
1 | CC1(C)CC(Cn2cnc(-c3ccc(F)cc3)c2-c2ccnc3[nH]ccc23)C1 [Preparative Example 29, 4-(1-((3,3-dimethylcyclobutyl)methyl)-4-(4-fluorophenyl)-1H-imidazol-5-yl)-1H-pyrrolo[2,3-b]pyridine] | 21 | 3
2 | Fc1ccc(-c2nc(Br)n(C3CCCCC3)c2-c2ccnc3[nH]ccc23)cc1 [Preparative Example 135, 4-(2-bromo-1-cyclohexyl-4-(4-fluorophenyl)-1H-imidazol-5-yl)-1H-pyrrolo[2,3-b]pyridine] | 9 | 0
3 | Fc1ccc(-c2ncn(Cc3ccc(OC(F)(F)F)cc3)c2-c2ccnc3[nH]ccc23)cc1 [Preparative Example 85] | 1 | 4
4 | c1ccc(-c2ncn(C3CCCCC3)c2-c2ccnc3[nH]ccc23)cc1 [Preparative Example 8] | 32 | 4
5 | Fc1ccccc1-c1ncn(C2CCCCC2)c1-c1ccnc2[nH]ccc12 [Preparative Example 2, 4-(1-cyclohexyl-4-(2-fluorophenyl)-1H-imidazol-5-yl)-1H-pyrrolo[2,3-b]pyridine] | 37 | 32
6 | NC(=O)c1nc(-c2ccc(F)cc2)c(-c2ccnc3[nH]ccc23)n1C1CCCCC1 [Preparative Example 165, 1-cyclohexyl-4-(4-fluorophenyl)-5-(1H-pyrrolo[2,3-b]pyridin-4-yl)-1H-imidazole-2-carboxamide] | 0 | 0
7 | Fc1cccc(-c2ncn(C3CCCCC3)c2-c2ccnc3[nH]ccc23)c1 [Preparative Example 1, 4-(1-cyclohexyl-4-(3-fluorophenyl)-1H-imidazol-5-yl)-1H-pyrrolo[2,3-b]pyridine] | 18 | 6
8 | COCc1cc2c(-c3c(-c4ccc(F)cc4)ncn3C3CCCCC3)ccnc2[nH]1 [Preparative Example 60, 4-(1-cyclohexyl-4-(4-fluorophenyl)-1H-imidazol-5-yl)-2-(methoxymethyl)-1H-pyrrolo[2,3-b]pyridine] | 93 | 84
9 | CN(C)[C@H]1CC[C@H](n2cnc(-c3ccc(F)cc3)c2-c2ccnc3[nH]ccc23)CC1 [Preparative Example 125, (1S,4r)-4-(4-(4-fluorophenyl)-5-(1H-pyrrolo[2,3-b]pyridin-4-yl)-1H-imidazol-1-yl)-N,N-dimethylcyclohexan-1-amine] | 28 | 26
10 | Fc1ccc(-c2ncn(C3CCCCC3)c2-c2ccnc3[nH]ccc23)c(F)c1 [Preparative Example 4, 4-(1-cyclohexyl-4-(2,4-difluorophenyl)-1H-imidazol-5-yl)-1H-pyrrolo[2,3-b]pyridine] | 21 | 21
11 | CN(C)[C@H]1C[C@H](n2cnc(-c3ccc(F)cc3)c2-c2ccnc3[nH]ccc23)C1 [Preparative Example 124, (1S,3r)-3-(4-(4-fluorophenyl)-5-(1H-pyrrolo[2,3-b]pyridin-4-yl)-1H-imidazol-1-yl)-N,N-dimethylcyclobutan-1-amine] | 55 | 53
12 | OCc1cc2c(-c3c(-c4ccc(F)cc4)ncn3C3CCCCC3)ccnc2[nH]1 [Preparative Example 56, (4-(1-cyclohexyl-4-(4-fluorophenyl)-1H-imidazol-5-yl)-1H-pyrrolo[2,3-b]pyridin-2-yl)methanol] | 67 | 79
13 | Fc1ccc(-c2ncn(Cc3c[nH]nn3)c2-c2ccnc3[nH]ccc23)cc1 [Preparative Example 153, 4-(1-((1H-1,2,3-triazol-4-yl)methyl)-4-(4-fluorophenyl)-1H-imidazol-5-yl)-1H-pyrrolo[2,3-b]pyridine] | 117 | 87
14 | Fc1ccc(-c2ncn(CC3CCCCC3)c2-c2ccnc3[nH]ccc23)cc1 [Preparative Example 88, 4-(1-(cyclohexylmethyl)-4-(4-fluorophenyl)-1H-imidazol-5-yl)-1H-pyrrolo[2,3-b]pyridine] | 15 | 5
15 | CSc1nc(-c2ccc(F)cc2)c(-c2ccnc3[nH]ccc23)n1C1CCCCC1 [Preparative Example 136, 4-(1-cyclohexyl-4-(4-fluorophenyl)-2-(methylthio)-1H-imidazol-5-yl)-1H-pyrrolo[2,3-b]pyridine] | 47 | 0
16 | CN1CCC(Cn2cnc(-c3ccc(F)c(Cl)c3)c2-c2ccnc3[nH]ccc23)CC1 [Preparative Example 141, 4-(4-(3-chloro-4-fluorophenyl)-1-((1-methylpiperidin-4-yl)methyl)-1H-imidazol-5-yl)-1H-pyrrolo[2,3-b]pyridine] | 43 | 0
17 | COC(=O)[C@H]1CC[C@H](n2cnc(-c3ccc(F)cc3)c2-c2ccnc3[nH]ccc23)CC1 [Preparative Example 34, Methyl trans-4-(4-(4-fluorophenyl)-5-(1H-pyrrolo[2,3-b]pyridin-4-yl)-1H-imidazol-1-yl)cyclohexane-1-carboxylate] | 55 | 89
18 | c1cc(-c2c(-c3ccsc3)ncn2C2CCCCC2)c2cc[nH]c2n1 [Preparative Example 42, 4-(1-cyclohexyl-4-(thiophen-3-yl)-1H-imidazol-5-yl)-1H-pyrrolo[2,3-b]pyridine] | 76 | 12
19 | Fc1ccc(-c2ncn(C3CCCCC3)c2-c2ccnc3[nH]cc(Cl)c23)cc1 [Preparative Example 144, 3-chloro-4-(1-cyclohexyl-4-(4-fluorophenyl)-1H-imidazol-5-yl)-1H-pyrrolo[2,3-b]pyridine] | 36 | 1
20 | Fc1ccc(-c2ncn(-c3cccnc3)c2-c2ccnc3[nH]ccc23)cc1 [Preparative Example 50, 4-(4-(4-fluorophenyl)-1-(pyridin-3-yl)-1H-imidazol-5-yl)-1H-pyrrolo[2,3-b]pyridine] | 63 | 48
21 | Fc1ccc(-c2ncn(CCCOC(F)(F)F)c2-c2ccnc3[nH]ccc23)cc1 [Preparative Example 80] | 49 | 42
22 | Fc1ccc(-c2ncn(CCc3ccccc3)c2-c2ccnc3[nH]ccc23)cc1 [Preparative Example 87, 4-(4-(4-fluorophenyl)-1-phenethyl-1H-imidazol-5-yl)-1H-pyrrolo[2,3-b]pyridine] | 10 | 3
23 | Fc1ccc(-c2nc(Cl)n(C3CCCCC3)c2-c2ccnc3[nH]ccc23)cc1 [Preparative Example 155, 4-(2-chloro-1-cyclohexyl-4-(4-fluorophenyl)-1H-imidazol-5-yl)-1H-pyrrolo[2,3-b]pyridine] | 1 | 0
24 | CN(C)CCS(=O)(=O)N[C@H]1CC[C@@H](n2cnc(-c3ccc(F)cc3)c2-c2ccnc3[nH]ccc23)CC1 [Preparative Example 98, 2-(dimethylamino)-N-((1R,4s)-4-(4-(4-fluorophenyl)-5-(1H-pyrrolo[2,3-b]pyridin-4-yl)-1H-imidazol-1-yl)cyclohexyl)ethane-1-sulfonamide] | 16 | 3
25 | Clc1ccc(-c2ncn(C3CCCCC3)c2-c2ccnc3[nH]ccc23)c(Cl)c1 [Preparative Example 7] | 34 | 84
26 | Fc1ccc(-c2ncn([C@H]3CC[C@H](C(F)(F)F)CC3)c2-c2ccnc3[nH]ccc23)cc1 [Preparative Example 36] | 68 | 1
27 | CN1CCC(Cn2cnc(-c3ccc(F)cc3)c2-c2ccnc3[nH]ccc23)C1 (stereo not drawn) [Preparative Example 129, 4-(4-(4-fluorophenyl)-1-((1-methylpyrrolidin-3-yl)methyl)-1H-imidazol-5-yl)-1H-pyrrolo[2,3-b]pyridine] | 78 | 86
28 | CC(c1ccccc1)n1cnc(-c2ccc(F)cc2)c1-c1ccnc2[nH]ccc12 (stereo not drawn) [Preparative Example 146, 4-(4-(4-fluorophenyl)-1-(1-phenylethyl)-1H-imidazol-5-yl)-1H-pyrrolo[2,3-b]pyridine] | 16 | 0
29 | Cn1cc(Cn2cnc(-c3ccc(F)cc3)c2-c2ccnc3[nH]ccc23)cn1 [Preparative Example 93] |  | 75
